According to US20220267271A1, “WNT ACTIVATORS AND METHODS OF USE” (MAYO FOUNDATION FOR MEDICAL EDUCATION AND RESEARCH, priority 2019, published 2022):

How the values were obtained:
tau = test: Tau phosphorylation in N2a cells by Western blotting; assay type: cell-based; conditions: 0.8 and 1.6 μM, 24 h
Protocol: N2a cells were treated with 1011 at the indicated concentrations for 24 h. (A) the levels of β-catenin, tau and tau phosphorylation were examined by Western blotting. (B) the intensity of the tau phosphorylation bands were quantified and normalized to the corresponding signal for total tau. The results represented in the histograms are shown as the mean±SD and are the average of 3 independent experiments. *P<0.05, **P<0.01 versus corresponding control value.
(§1) Western blotting: Cells in 6-well plates were lysed in 0.5 ml of lysis buffer (phosphate-buffered saline containing 1% Triton X-100, 1× Proteinase inhibitor cocktail Complete, and 1 mM PMSF) at 4° C. for 15 min. Equal quantities of protein were subjected to SDS-PAGE under reducing conditions. Following transfer to immobilon-P transfer membrane, successive incubations with a primary antibody, and a horseradish peroxidase-conjugated secondary antibody or IRDye® 680RD goat anti-rabbit/mouse secondary antibodies were carried out for 60-120 min at room temperature. The immunoreactive proteins were then detected using the ECL system or the Odyssey infrared imaging system (LI-COR). Films showing immunoreactive bands were scanned by Hp Scanjet 5590.

S. typhimurium TA1535 = test: Ames test, bacterial reverse mutation assay, TA1535; set-up: species or system Salmonella typhimuium; conditions: 1011 and 1015 at 400 μM, mean ± SD, n = 3
Protocol: (§2) Ames test: According to the OECD Guidelines For Testing Of Chemicals, experiments with the tested agents, positive and negative controls, were conducted in triplicates on 6 tester strains, S. typhimurium: TA98, TA100, TA1535, TA1537 and E. coli: wp2[pKM101]+wp2 uvrA mixed 1:2. Dimethyl sulfoxide (DMSO) was used as the vehicle control for all tester strains in mutagenicity assay with and without metabolic activation. Compounds with known mutagenic activity were used as the positive controls in mutagenicity assay without metabolic activation: 2-nitrofluorene (0.1 μg/plate) for TA98, 4-nitroquinoline N-oxide (0.1 μg/plate) for TA100, sodium azide (0.2 μg/plate) for TA1535, 9-aminoacridine (7.5 μg/plate) for TA1537, and 4-nitroquinoline N-oxide (0.1 μg/plate) for E. coli. 2-Aminoantracene in final concentration 0.4 μg/ml was used as the positive control (the solution of 2-aminoantracene in DMSO was prepared immediately before experiment) in test with metabolic activation. For each experiment tester strain cultures were grown overnight in Oxoid nutrient broth #2 at 37° C. with shaking at 235 rpm to a density of 1-2×10^9 colony forming units/ml (OD600˜1.5). The S9 mix, which is consist of 9000 g supernatant fraction of rat liver homogenate (S9 fraction), was prepared immediately prior to its use in experimental procedure.
(§3) The tester strain (10 μl of overnight culture) was mixed with the test agent (10 μl of the DMSO stock) and GM liquid medium (30 μl) or S9 mix (30 μl). Then, 200 μl of molten top agar supplemented with histidine/biotin (final concentration 0.05 mM) for S. typhimurium and tryptophan (final concentration 0.025 mM) for E. coli were added to the tube (top agar was kept at 44° C. to prevent hardening). The mixed suspension was poured onto the surface of a GM agar plate (2.0 ml of GM agar per plate). After the top agar solidified, the plates were inverted and incubated at 37° C. for 48 hours. The results were expressed as number of revertant colonies per plate. The final concentrations of the test compounds in the mutagenicity assay with all tester strains in both the presence and absence of S9 mix were 400 μM. All concentrations were tested in triplicates.

hCMEC/D3 cells = test: Cell viability assay (CellTiter-Glo) in hCMEC/D3 cells; assay type: cell-based, human; conditions: hCMEC/D3 cells, 0.3, 1, 3, 10 and 30 μM, 24 h
Protocol: The human brain endothelial capillary hCMEC/D3 cells were cultured with compounds at the indicated concentrations for 24 h. Cell viability was assessed by the Cell TitreGlo Assay system from Promega. Data represent mean±SD from three independent experiments. *P<0.05.
Cell viability assay: Human blood-brain barrier hCMEC/D3 cells were seeded into 96-well tissue culture treated microtiter plates at a density of 20,000 cells/well. After 24 h incubation, the cells were treated with the test compounds at the indicated concentrations for 24 h. Cell viability was measured by the CellTiter-Glo Assay (Promega), which is a luminescent assay that is an indicator of live cells as a function of metabolic activity and ATP content.

S. typhimurium TA100 = test: Ames test, bacterial reverse mutation assay, TA100; set-up: species or system Salmonella typhimuium; conditions: 1011 and 1015 at 400 μM, mean ± SD, n = 3
Protocol: as §2, §3

[1] = test system: E. coli: wp2[pKM101]+wp2 uvrA; test: Ames test, bacterial reverse mutation assay, E. coli; set-up: species or system Escherichia coli; conditions: 1011 and 1015 at 400 μM, mean ± SD, n = 3
Protocol: as §2, §3

S. typhimurium TA1537 = test: Ames test, bacterial reverse mutation assay, TA1537; set-up: species or system Salmonella typhimuium; conditions: 1011 and 1015 at 400 μM, mean ± SD, n = 3
Protocol: as §2, §3

S. typhimurium TA98 = test: Ames test, bacterial reverse mutation assay, TA98; set-up: species or system Salmonella typhimuium; conditions: 1011 and 1015 at 400 μM, mean ± SD, n = 3
Protocol: as §2, §3

[2] = test system: S. typhimuium and E. coli; test: Bacterial reverse mutation test, all tested strains (summary); set-up: species or system Salmonella typhimuium and Escherichia coli; conditions: 400 μM
Protocol: The bacterial reverse mutation test uses amino acid requiring strains of Salmonella typhimuium and Escherichia coli (E. coli) to detect chemical substances that can produce genetic damage and lead to gene mutations. The mutagenic potential of 1011 and 1015 and their metabolites was assessed by exposing bacterial strains to the compounds and evaluating at 400 μM, and evaluating the numbers of revertant colonies grown in the absence (trace quantities) of the amino acid.
Ames test: According to the OECD Guidelines For Testing Of Chemicals, experiments with the tested agents, positive and negative controls, were conducted in triplicates on 6 tester strains, S. typhimurium: TA98, TA100, TA1535, TA1537 and E. coli: wp2[pKM101]+wp2 uvrA mixed 1:2. Dimethyl sulfoxide (DMSO) was used as the vehicle control for all tester strains in mutagenicity assay with and without metabolic activation. […]
The tester strain (10 μl of overnight culture) was mixed with the test agent (10 μl of the DMSO stock) and GM liquid medium (30 μl) or S9 mix (30 μl). […] The results were expressed as number of revertant colonies per plate. […]

GSK3β = GSK3β phosphorylation (Ser9) in N2a cells by Western blotting; assay type: cell-based; conditions: 0.8 μM and 1.6 μM, 24 h
Protocol: N2a cells were treated with 1011 at the indicated concentrations for 24 h. (A) the levels of β-catenin, GSK3β and GSK3β phosphorylation (Ser9) were examined by Western blotting. (B) the intensity of the GSK3β phosphorylation bands were quantified and normalized to the corresponding signal for total GSK3β. The results represented in the histograms are shown as the mean±SD and are the average of 3 independent experiments. *P<0.05, **P<0.01 versus corresponding control value.
as §1

TCF/LEF reporter = conditions: with Wnt3A; cited from earlier work
[3] = with metabolic activation (S9 mix)

SMILES	tau phosphorylation (tau)	Number of revertant colonies per plate, TA1535 (S. typhimurium TA1535; [3])	Number of revertant colonies per plate, TA1535 (S. typhimurium TA1535; without metabolic activation)	cytotoxicity (cell viability) (hCMEC/D3 cells)	Number of revertant colonies per plate, TA100 (S. typhimurium TA100; [3])	Number of revertant colonies per plate, TA100 (S. typhimurium TA100; without metabolic activation)	Number of revertant colonies per plate, E. coli [1, 3]	Number of revertant colonies per plate, E. coli ([1]; without metabolic activation)	Number of revertant colonies per plate, TA1537 (S. typhimurium TA1537; [3])	Number of revertant colonies per plate, TA1537 (S. typhimurium TA1537; without metabolic activation)	Number of revertant colonies per plate, TA 98 (S. typhimurium TA98; [3])	Number of revertant colonies per plate, TA 98 (S. typhimurium TA98; without metabolic activation)	mutagenic effects of test compounds and their metabolites [2]	GSK3β phosphorylation at Ser9 (GSK3β)	activity of the TCF/LEF reporter (TCF/LEF reporter)
CC1CCCC(C)N1CCNC(=O)c1ccc(C(=O)Nc2ccccc2N)nc1 (stereo not drawn) [Compound 1011]	suppressed	0.7 ± 0.6 revertant colonies per plate	1.7 ± 2.1 revertant colonies per plate	not toxic at all the tested concentrations	4.7 ± 2.1 revertant colonies per plate	4.3 ± 3.5 revertant colonies per plate	9.7 ± 3.2 revertant colonies per plate	8.7 ± 2.1 revertant colonies per plate	0.0 ± 0.0 revertant colonies per plate	0.7 ± 0.6 revertant colonies per plate	1.7 ± 2.1 revertant colonies per plate	1.7 ± 1.5 revertant colonies per plate	no mutagenic effects	significantly enhanced	–
Nc1ccccc1NC(=O)c1ccc(C(=O)NCC2CCN2C2CCCC2)cn1 (stereo not drawn) [Compound 1015]	–	0.7 ± 1.2 revertant colonies per plate	0.3 ± 0.6 revertant colonies per plate	not toxic at or below the 10 μM concentration	2.0 ± 1.0 revertant colonies per plate	1.33 ± 0.6 revertant colonies per plate	9.0 ± 2.7 revertant colonies per plate	5.3 ± 4.7 revertant colonies per plate	0.0 ± 0.0 revertant colonies per plate	0.0 ± 0.0 revertant colonies per plate	0.7 ± 1.2 revertant colonies per plate	1.3 ± 1.5 revertant colonies per plate	no mutagenic effects	–	–
CC(=O)Nc1ccc(C(=O)Nc2ccccc2N)cc1 [CI-994, 4-(acetylamino)-N-(2-aminophenyl)benzamide, reference compound]	–	–	–	–	–	–	–	–	–	–	–	–	–	–	able to synergize with Wnt3A to activate
